From patent US5506102A (priority 1993, dated 1996)

Target: T1, PR-A (Homo sapiens, UniProt P06401)
T1 sequence (P06401 165-933): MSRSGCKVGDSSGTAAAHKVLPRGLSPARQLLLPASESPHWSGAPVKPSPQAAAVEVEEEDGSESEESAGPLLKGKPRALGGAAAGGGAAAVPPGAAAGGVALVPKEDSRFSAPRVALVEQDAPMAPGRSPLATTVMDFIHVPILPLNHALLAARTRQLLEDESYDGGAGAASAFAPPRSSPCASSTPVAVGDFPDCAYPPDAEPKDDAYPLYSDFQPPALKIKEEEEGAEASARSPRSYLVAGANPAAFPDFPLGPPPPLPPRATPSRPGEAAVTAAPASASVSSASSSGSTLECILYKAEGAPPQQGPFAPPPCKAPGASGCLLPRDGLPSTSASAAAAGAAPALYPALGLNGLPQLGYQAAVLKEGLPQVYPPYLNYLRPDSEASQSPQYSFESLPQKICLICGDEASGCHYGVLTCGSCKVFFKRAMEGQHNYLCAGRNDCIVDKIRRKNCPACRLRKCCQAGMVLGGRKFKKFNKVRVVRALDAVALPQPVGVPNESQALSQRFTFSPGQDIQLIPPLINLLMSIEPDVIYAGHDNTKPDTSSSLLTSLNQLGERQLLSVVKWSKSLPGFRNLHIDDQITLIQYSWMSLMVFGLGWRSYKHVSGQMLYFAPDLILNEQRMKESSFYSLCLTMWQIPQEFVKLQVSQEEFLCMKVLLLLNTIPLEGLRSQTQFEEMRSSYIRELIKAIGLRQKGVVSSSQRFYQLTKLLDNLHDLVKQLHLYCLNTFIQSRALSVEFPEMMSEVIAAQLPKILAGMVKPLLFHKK
Assay: PR-A transactivation of PRE2 tk-LUC
Assay type: cell-based
Set-up: PRE2 tk-LUC in CV-1
Method: FIGS. 4A-4B are a series of graphs showing CV-1 ([…]) or HepG2 (FIG. 4B) cells that were transiently transfected with either […] of phPR-B or phPR-A alone, or phPR-B in the presence of increasing concentrations of phPR-A, together with 5 µg/ml of the PRE2 tk-LUC reporter and 5 µg/ml of pCH110 as an internal control. HeLa cells (FIG. 4C) were transfected with either phPR-B or phPR-A together with 5 µg/ml of the pTAT2950 reporter and 5 µg/ml of pCH110 as an internal control. […] The relative luciferase activity is calculated by dividing the normalized luciferase value at a given point by that obtained in the absence of transfected receptor or ligand. The data shown represent the mean +/- average deviation from the mean of triplicate estimations;
Both reporter plasmids were digested with XhoI and HindIII restriction enzymes and a 6.7 Kb fragment from MMTV-LUC and a 0.12 Kb fragment from PRE2 tk-CAT were isolated and ligated, resulting in a plasmid called PRE2 tk-LUC.
Cells were seeded in 12-well, 96-well or 10 cm tissue culture plates. […] 20 μg of DNA/ml of transfection buffer were used in each transfection reaction. […]

Structure (SMILES): CC(=O)[C@H]1CC[C@H]2[C@@H]3CCC4=CC(=O)CC[C@]4(C)[C@H]3CC[C@]12C [progesterone]
- PR-A transcriptional activity on PRE2 tk-LUC (CV-1, 10^-7 M progesterone, FIG. 4A): transcriptionally inactive
- PR-A transcriptional activity on PRE2 tk-LUC (HepG2, 10^-7 M progesterone, FIG. 4B): activator of transcription
